Experimental data: US20250052744A1, “Dyes and Uses Thereof” (The University of Liverpool, priority 2021, published 2025)

Assays:
Experiment in all cases: Qualitative dye staining on agarose pads (EVOS M7000)
Assay type in all cases: cell-based
Design in all cases: key to Relative fluorescent intensity: Very high: If the cells looked twice as big in the fluorescent channel, it was marked as having “very high” relative fluorescent intensity; High: if the cells looked bigger in the fluorescent channel, it was marked as having “high” relative fluorescent intensity; Medium: If the cells looked almost the same size in the fluorescent channel and the bright field, it was marked as having “medium” relative fluorescent intensity; Low: If the cells looked smaller in the fluorescent channel as compared to the brightfield but still the whole cell was visible, it was marked as having “low” relative fluorescent intensity; Negligible: If only a few traces of a cell was visible in the fluorescent channel, it was marked as having “negligible” relative fluorescent intensity
Settings in all cases: DiSC3(5) 3 μM, SYBR Green I 10×, SYTO 13 3 μM, FM4-64 15 μM
Streptococcus agalactiae = tested on: Streptococcus agalactiae
Escherichia coli = tested on: Escherichia coli
Proteus vulgaris = tested on: Proteus vulgaris
[1] = Table 6 thresholds, Streptococcus agalactiae
[2] = Table 7 commercial strain Streptococcus agalactiae NCTC 11239
[3] = Table 8 sample Streptococcus agalactiae (081)
[4] = Table 8 sample Streptococcus agalactiae (082)
[5] = Table 8 sample Streptococcus agalactiae (083)
[6] = Table 6 thresholds, Escherichia coli
[7] = Table 7 commercial strain E. coli SEC 27
[8] = Table 7 commercial strain E. coli SEC 93
[9] = Table 8 sample Escherichia coli (051)
[10] = Table 8 sample Escherichia coli (052)
[11] = Table 8 sample Escherichia coli (053)
[12] = Table 8 sample Proteus vulgaris (024)
[13] = Table 8 sample Proteus vulgaris (025)
[14] = Table 8 sample Proteus vulgaris (026)

CCCN(CCCN(C)C)c1cc(/C=C2/Sc3ccccc3N2C)c2ccccc2[n+]1-c1ccccc1 [SYBR Green I, N′,N′-dimethyl-N-[4-[(E)-(3-methyl-1,3-benzothiazol-2-ylidene)methyl]-1-phenylquinolin-1-ium-2-yl]-N-propylpropane-1,3-diamine]
Very high: Relative fluorescent intensity (Streptococcus agalactiae; Table 6 thresholds, Streptococcus agalactiae, listed as SYBR Green) | Relative fluorescent intensity (Streptococcus agalactiae; [2]) | Relative fluorescent intensity (Streptococcus agalactiae; [3]) | Relative fluorescent intensity (Streptococcus agalactiae; [4]) | Relative fluorescent intensity (Streptococcus agalactiae; [5])
very high: Relative fluorescent intensity (Streptococcus agalactiae; [1])
Low: Relative fluorescent intensity (Proteus vulgaris; [12]) | Relative fluorescent intensity (Proteus vulgaris; [13]) | Relative fluorescent intensity (Proteus vulgaris; [14])
Half: Percentage of cells stained (Proteus vulgaris; [12]) | Percentage of cells stained (Proteus vulgaris; [13])
Almost all: Percentage of cells stained (Streptococcus agalactiae; [1]) | Percentage of cells stained (Streptococcus agalactiae; [2]) | Percentage of cells stained (Streptococcus agalactiae; [3]) | Percentage of cells stained (Streptococcus agalactiae; [4]) | Percentage of cells stained (Streptococcus agalactiae; [5]) | Percentage of cells stained (Escherichia coli; [6]) | Percentage of cells stained (Escherichia coli; [7]) | Percentage of cells stained (Escherichia coli; [8]) | Percentage of cells stained (Escherichia coli; [9]) | Percentage of cells stained (Escherichia coli; [10]) | Percentage of cells stained (Escherichia coli; [11]) | Percentage of cells stained (Proteus vulgaris; [14])
Medium: Relative fluorescent intensity (Escherichia coli; [6]) | Relative fluorescent intensity (Escherichia coli; [7]) | Relative fluorescent intensity (Escherichia coli; [8]) | Relative fluorescent intensity (Escherichia coli; [9]) | Relative fluorescent intensity (Escherichia coli; [10]) | Relative fluorescent intensity (Escherichia coli; [11])

CCN(CC)c1ccc(C=CC=CC=Cc2cc[n+](CCC[N+](CC)(CC)CC)cc2)cc1.[Br-].[Br-] [FM 4-64, N-(3-Triethylammoniumpropyl)-4-(6-(4-(Diethylamino) Phenyl) Hexatrienyl) Pyridinium Dibromide]
Few: Percentage of cells stained (Proteus vulgaris; [12]) | Percentage of cells stained (Proteus vulgaris; [13]) | Percentage of cells stained (Proteus vulgaris; [14])
High: Relative fluorescent intensity (Streptococcus agalactiae; [1]) | Relative fluorescent intensity (Streptococcus agalactiae; [2]) | Relative fluorescent intensity (Streptococcus agalactiae; [3]) | Relative fluorescent intensity (Streptococcus agalactiae; [4]) | Relative fluorescent intensity (Streptococcus agalactiae; [5])
Medium: Relative fluorescent intensity (Escherichia coli; [6]) | Relative fluorescent intensity (Escherichia coli; [7]) | Relative fluorescent intensity (Escherichia coli; [8]) | Relative fluorescent intensity (Escherichia coli; [9]) | Relative fluorescent intensity (Escherichia coli; [10]) | Relative fluorescent intensity (Escherichia coli; [11])
Negligible: Relative fluorescent intensity (Proteus vulgaris; [12]) | Relative fluorescent intensity (Proteus vulgaris; [13]) | Relative fluorescent intensity (Proteus vulgaris; [14])
Almost all: Percentage of cells stained (Streptococcus agalactiae; [1]) | Percentage of cells stained (Streptococcus agalactiae; [2]) | Percentage of cells stained (Streptococcus agalactiae; [3]) | Percentage of cells stained (Streptococcus agalactiae; [4]) | Percentage of cells stained (Streptococcus agalactiae; [5]) | Percentage of cells stained (Escherichia coli; [6]) | Percentage of cells stained (Escherichia coli; [7]) | Percentage of cells stained (Escherichia coli; [8]) | Percentage of cells stained (Escherichia coli; [9]) | Percentage of cells stained (Escherichia coli; [10]) | Percentage of cells stained (Escherichia coli; [11])

CCCN1C(=CC=CC=Cc2sc3ccccc3[n+]2CCC)Sc2ccccc21.[I-] [DiSC3(5), 3,3′-Dipropylthiadicarbocyanine Iodide]
Almost all: Percentage of cells stained (Streptococcus agalactiae; [1]) | Percentage of cells stained (Streptococcus agalactiae; [2]) | Percentage of cells stained (Streptococcus agalactiae; [3]) | Percentage of cells stained (Streptococcus agalactiae; [4]) | Percentage of cells stained (Streptococcus agalactiae; [5]) | Percentage of cells stained (Escherichia coli; [6]) | Percentage of cells stained (Escherichia coli; [7]) | Percentage of cells stained (Escherichia coli; [8]) | Percentage of cells stained (Escherichia coli; [9]) | Percentage of cells stained (Escherichia coli; [10]) | Percentage of cells stained (Escherichia coli; [11]) | Percentage of cells stained (Proteus vulgaris; [12]) | Percentage of cells stained (Proteus vulgaris; [14])
Medium: Relative fluorescent intensity (Escherichia coli; [6]) | Relative fluorescent intensity (Escherichia coli; [7]) | Relative fluorescent intensity (Escherichia coli; [8]) | Relative fluorescent intensity (Escherichia coli; [9]) | Relative fluorescent intensity (Escherichia coli; [10]) | Relative fluorescent intensity (Escherichia coli; [11]) | Relative fluorescent intensity (Proteus vulgaris; [13])
Few: Percentage of cells stained (Proteus vulgaris; [13])
Low: Relative fluorescent intensity (Streptococcus agalactiae; [2]) | Relative fluorescent intensity (Streptococcus agalactiae; [3]) | Relative fluorescent intensity (Streptococcus agalactiae; [4]) | Relative fluorescent intensity (Streptococcus agalactiae; [5]) | Relative fluorescent intensity (Proteus vulgaris; [12]) | Relative fluorescent intensity (Proteus vulgaris; [14])
low and Low: Relative fluorescent intensity (Streptococcus agalactiae; [1])
